Test results taken from US20240239854A1, “ANTIMICROBIAL PEPTIDES AND MODIFICATIONS THEREOF” (Donald Danforth Plant Science Center, priority 2022, published 2024).
In brackets after ≈: the same amount, converted by molar mass. Like-named read-outs stand apart in the source and are kept apart here. Positions of bridges follow the written chain, without caps; N, C: chain ends. Non-standard residues stand in square brackets, D forms with d. Residues, ends and D or L forms follow the SMILES beside them. Dab = NCC[C@H](N)C(=O)O

Experiments:
[1] = tested on: B. cinerea; experiment: Semi-in planta drop inoculation assay on detached leaves of N. benthamiana, gray mold (Example 4); assay type: in vivo
[2] = tested on: Botrytis cinerea T-4; details: for MIC (μM) SFM: Table 18, SFM; for MIC (μM) (SFM + 2 mM CaCl2): Table 18, SFM + 2 mM CaCl2; for MIC (μM) (SFM + 100 mM KCl): Table 18, SFM + 100 mM KCl; for MIC (μM) (SFM + 100 mM NaCl): Table 18, SFM + 100 mM NaCl
[3] = tested on: F. graminearum
[4] = tested on: B. cinerea
[5] = tested on: Fusarium graminearum PH-1; assay type: cell-based; details: MIC Day 1; 96-well plate, resazurin cell viability
[6] = tested on: Botrytis cinerea T4; assay type: cell-based
[7] = tested on: Zymoseptoria tritici IPO323; assay type: cell-based

Molecule	F. graminearum PH-1 MIC Day1 [5] [µM]	B. cinerea T4 MIC Day1 [6] [µM]	Z. tritici IPO323 MIC Day 1 [7] [µM]	Z. tritici IPO323 MIC Day 7 [7] [µM]	Z. tritici IPO323 MIC Day 14 [7] [µM]	other results
CC[C@H](C)[C@H](NC(=O)[C@H](CCCNC(=N)N)NC(=O)[C@H](CS)NC(=O)[C@H](CCCNC(=N)N)NC(=O)CNC(=O)[C@@H](N)CO)C(=O)N[C@@H](CC(C)C)C(=O)N[C@@H](Cc1ccccc1)C(=O)N[C@@H](CCCNC(=N)N)C(=O)N[C@@H](CS)C(=O)N[C@@H](Cc1ccccc1)C(=O)N[C@@H](CS)C(=O)N[C@H](C(=O)N[C@@H](CCCCN)C(=O)N[C@@H](CC(N)=O)C(=O)N[C@@H](CS)C(N)=O)[C@@H](C)O [GMA1C_V1] (H-SGRCRILFRCFCTKNC-NH2; N-terminus assumed)	–	–	–	–	–	Reduction of gray mold symptoms at 3 and 6 μM ([1]; drop inoculation assay, peptide 3 μM and 6 μM): failed to reduce disease symptoms
CC[C@H](C)[C@@H]1NC(=O)[C@H](CCCNC(=N)N)NC(=O)[C@@H](NC(=O)[C@H](CCCNC(=N)N)NC(=O)CNC(=O)[C@@H](N)CO)CSSC[C@@H](C(N)=O)NC(=O)[C@H](CC(N)=O)NC(=O)[C@H](CCCCN)NC(=O)[C@H]([C@@H](C)O)NC(=O)[C@H](Cc2ccccc2)NC(=O)[C@H](Cc2ccc(O)cc2)NC(=O)[C@H](Cc2c[nH]c3ccccc23)NC(=O)[C@H](CCCNC(=N)N)NC(=O)[C@H](Cc2ccccc2)NC(=O)[C@H](CC(C)C)NC1=O [GMA1C_V3] (H-SGRCRILFRWYFTKNC-NH2; disulfide 4-16; N-terminus assumed)	–	–	–	–	–	MIC (μM) SFM [2]: 1.5 µM (≈ 3.07 µg/mL); MIC (μM) (SFM + 2 mM CaCl2) [2]: 6 µM; MIC (μM) (SFM + 100 mM KCl) [2]: >12 µM; MIC (μM) (SFM + 100 mM NaCl) [2]: 3 µM
C[C@@H](O)[C@H](NC(=O)[C@H](CS)NC(=O)[C@H](Cc1ccccc1)NC(=O)[C@H](CS)NC(=O)[C@H](CCCNC(=N)N)NC(=O)[C@H](CCCNC(=N)N)NC(=O)[C@H](CCCNC(=N)N)NC(=O)[C@H](Cc1ccccc1)NC(=O)CNC(=O)[C@H](CCCNC(=N)N)NC(=O)[C@H](CS)NC(=O)[C@H](CCCNC(=N)N)NC(=O)CN)C(=O)N[C@H](C(=O)N[C@@H](Cc1c[nH]cn1)C(=O)N[C@@H](CS)C(N)=O)[C@@H](C)O [GMA4AC] (H-GRCRGFRRRCFCTTHC-NH2; N-terminus and C-terminus assumed)	–	–	–	–	–	MIC (μM) Fusarium graminearum [3]: 6 µM (≈ 11.8 µg/mL)
NCC[C@H](NC(=O)CNC(=O)[C@@H](N)Cc1ccccc1)C(=O)N[C@@H](CS)C(=O)N[C@@H](CCN)C(=O)NCC(=O)N[C@@H](Cc1ccccc1)C(=O)N[C@@H](CCN)C(=O)N[C@@H](CCN)C(=O)N[C@@H](CCN)C(=O)N[C@@H](CS)C(=O)N[C@@H](Cc1ccccc1)C(=O)N[C@@H](CS)C(=O)N[C@@H](Cc1c[nH]c2ccccc12)C(=O)N[C@@H](CCN)C(=O)N[C@@H](Cc1c[nH]c2ccccc12)C(=O)N[C@@H](CS)C(=O)O [GMA4C_V5, FG(Dab)C(Dab)GF(Dab)(Dab)(Dab)CFCW(Dab)WC] (H-FG[Dab]C[Dab]GF[Dab][Dab][Dab]CFCW[Dab]WC-OH; N-terminus assumed)	–	–	–	–	–	SFM + 2 mM CaCl2 MIC ([4]; Table 4, B. cinerea, SFM + 2 mM CaCl2): >6 (very μM; SFM + 2 mM CaCl2 MIC ([4]; Table 10, SFM + 2 mM CaCl2, values repeat Table 4 (B. cinerea)): >6 (very μM
CC[C@H](C)[C@H](NC(=O)[C@H](CCCNC(=N)N)NC(=O)[C@@H](NC(=O)[C@H](Cc1c[nH]c2ccccc12)NC(=O)[C@H](Cc1ccccc1)NC(=O)[C@H](Cc1c[nH]c2ccccc12)NC(=O)[C@H](CCCNC(=N)N)NC(=O)[C@H](CCCNC(=N)N)NC(=O)[C@H](CCCNC(=N)N)NC(=O)[C@H](Cc1ccccc1)NC(=O)CNC(=O)[C@H](CCCCN)NC(=O)[C@H](CS)NC(=O)[C@H](CCCNC(=N)N)NC(=O)CNC(=O)CN)[C@@H](C)O)C(=O)N[C@@H](CS)C(N)=O [GMA4C_V6A] (H-GGRCKGFRRRWFWTRIC-NH2; N-terminus assumed)	–	–	–	–	–	B. cinerea MIC [4]: 0.75 µM; MIC (μM) Botrytis cinerea [4]: 0.75 µM (≈ 1.64 µg/mL); MIC Values (μM) against B. cinerea [4]: 0.75 µM (≈ 1.64 µg/mL); SFM + 2 mM CaCl2 MIC [4]: 3 to 6 µM; SFM + 100 mM KCl MIC [4]: 1.5 to 3 µM; SFM + 100 mM NaCl MIC [4]: 0.75 to 1.5 µM; SFM MIC [4]: 1.5 µM; Antifungal activity relative to the wild-type GMA4C_AC control ([4]; in vitro, low cationic conditions, B. cinerea): four-fold increase
CC(C)C[C@@H]1NC(=O)[C@@H](NC(=O)[C@H](C)NC(=O)CN)CSSC[C@@H](C(=O)N[C@@H](Cc2ccc(O)cc2)C(N)=O)NC(=O)[C@H](Cc2c[nH]cn2)NC(=O)[C@H](CCCNC(=N)N)NC(=O)[C@H](Cc2ccc(O)cc2)NC(=O)[C@H](Cc2ccc(O)cc2)NC(=O)[C@H](Cc2c[nH]c3ccccc23)NC(=O)[C@H](Cc2ccccc2)NC(=O)[C@H](Cc2ccccc2)NC(=O)CNC(=O)[C@H](Cc2ccc(O)cc2)NC(=O)[C@H](Cc2c[nH]cn2)NC(=O)[C@H](CCCCN)NC(=O)[C@H](CO)NC(=O)[C@H](Cc2c[nH]cn2)NC(=O)[C@H](CCCNC(=N)N)NC(=O)[C@H](CC(N)=O)NC(=O)[C@H](CCCCN)NC1=O [GMAOe1C_V4] (H-GACLKNRHSKHYGFFWYYRHCY-NH2; disulfide 3-21; N-terminus assumed)	–	–	–	–	–	MIC (μM) SFM [2]: 1.5 µM (≈ 4.25 µg/mL); MIC (μM) (SFM + 2 mM CaCl2) [2]: 6 to 12 µM; MIC (μM) (SFM + 100 mM KCl) [2]: 6 to 12 µM; MIC (μM) (SFM + 100 mM NaCl) [2]: 6 µM
CC(C)C[C@H](NC(=O)[C@H](CS)NC(=O)[C@H](C)NC(=O)CN)C(=O)N[C@@H](CCCCN)C(=O)N[C@@H](CC(N)=O)C(=O)N[C@@H](CCCNC(=N)N)C(=O)N[C@@H](Cc1c[nH]cn1)C(=O)N[C@@H](CO)C(=O)N[C@@H](CCCCN)C(=O)N[C@@H](Cc1c[nH]cn1)C(=O)N[C@@H](Cc1ccc(O)cc1)C(=O)NCC(=O)N[C@@H](CS)C(=O)N[C@@H](Cc1ccc(O)cc1)C(=O)N[C@@H](CS)C(=O)N[C@@H](Cc1ccc(O)cc1)C(=O)N[C@@H](Cc1ccc(O)cc1)C(=O)N[C@@H](CCCNC(=N)N)C(=O)N[C@@H](Cc1c[nH]cn1)C(=O)N[C@@H](CS)C(=O)N[C@@H](Cc1ccc(O)cc1)C(N)=O [GMAOe1C_WT] (H-GACLKNRHSKHYGCYCYYRHCY-NH2; N-terminus assumed)	–	–	–	–	–	Reduction of gray mold disease symptoms (lesion sizes) ([1]; detached N. benthamiana leaves, peptide 1.5, 3 and 6 μM, 48 h after inoculation): only effective at 6 μM
PD126.1.1: wild-type defensin-like protein SEQ ID NO: 730 with N-terminal alanine, expressed in Pichia pastoris (KLCERRSKTWTGWCAKTSHCNKQCKDWERVEHGACHGEFLEKPVSAISNAHCKISF; N-terminal alanine added; listed as Prunus armeniaca)	>12	>12	>12	>12	>12	–
PD128.1.1: wild-type defensin-like protein SEQ ID NO: 734 with N-terminal alanine, expressed in Pichia pastoris (RVCLRRSKTWTGFCGNTRGFDSQCKRWECALHGACHC; N-terminal alanine added; listed as Lepidium sativum)	>12	3	3	7	8	–
PD97.1.1: Rubus chingii wild-type defensin SEQ ID NO: 608 with N-terminal alanine, expressed in Pichia pastoris (protein, listed as Rubus chingii, N-terminal alanine) GACPLVSKRSKTWSGFCGSSNNCNKQCRSWESAQHGACHNTYKTVLGVKVISGRACFCYFCKKHT	1.5	1.25	0.75	1.5	1.5	MIC against Z. tritici on day 1 [7]: 0.75 µM; MIC against Z. tritici on day 7 [7]: 1.5 µM; MIC against Z. tritici on day 14 [7]: 1.5 µM
PD91.1.1: Setaria viridis wild-type defensin SEQ ID NO: 578 with N-terminal alanine, expressed in Pichia pastoris (protein, listed as Setaria viridis, N-terminal alanine) AYMCTTQNRFFHGRCVNNLNCASSCVHGRLGTGGHCATRKRSAADPGVDIDWVWNRRICVCVFQC	>12	>12	6	>6	>6	–
PD127.1.1: wild-type defensin-like protein SEQ ID NO: 732 with N-terminal alanine, expressed in Pichia pastoris (protein, listed as Potentilla micrantha, N-terminal alanine added) GACPLVQKRSKTWSGFCGSSNNCDKQCRTWEKAKHGACHATGDLKGTPRLKLRSCHARRSKDH	>12	>12	>12	>12	>12	–
